US20250032454A1, “KDM1A INHIBITORS FOR THE TREATMENT OF DISEASE” (Imago Biosciences, Inc., priority 2021, published 2025)
Read-outs that look alike come from different tables or passages of the source.

What was measured:
LSD1 = LSD1 (Homo sapiens, UniProt O60341); test: LSD1 fluorescence coupling enzyme assay (HRP/Amplex Red, H3(1-21)K4me2 peptide), 10-dose IC50; format: biochemical; settings: 10 μM histone H3(1-21)K4me2 peptide substrate, 3-fold serial dilution from 100 μM
Summary of the method: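 Fluorescence coupled assay: LSD1 demethylation of 10 μM H3(1-21)K4me2 peptide produces FAD-dependent H2O2, detected via HRP/Amplex Red as resorufin (Ex/Em 535/590 nm). IC50 from 10 doses, 3-fold serial dilution from 100 μM, in duplicate.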

MV4;11 cells = test: Cell Titer-Glo cell growth inhibition in MV4;11 cell line (Day 5 / Day 10); format: cell-based
Summary of the method: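 Cells seeded at 3750/well and treated with a 10-point, 4-fold dose curve from 0 to 50 µM; ATP-based luminescence viability read at Day 5. A portion is reseeded into fresh compound and media for 5 more days, read at Day 10; IC50 derived from luminescence.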

[1] = Homo sapiens, MV4-11, 120 h, Day 5, read-out: Cell Titer-Glo IC50 (5 d)
[2] = Homo sapiens, MV4-11, 240 h, Day 10, read-out: Cell Titer-Glo IC50 (10 d)
[3] = Day 5, read-out: Cell Titer-Glo IC50 (5 d)

Row | IC50 (LSD1) [nM] | IC50 (MV4;11 cells; [1]) [nM] | IC50 (MV4;11 cells; [2]) [nM] | IC50 (MV4;11 cells; [3]) [nM] | IC50 (MV4;11 cells; Day 10, read-out: Cell Titer-Glo IC50 (10 d)) [nM] | Compound | IC50 (MV4;11 cells; Homo sapiens, 120 h, Day 5, read-out: Cell Titer-Glo IC50 (5 d)) [nM] | IC50 (MV4;11 cells; Homo sapiens, 240 h, Day 10, read-out: Cell Titer-Glo IC50 (10 d)) [nM]
1 | 500 to 1000 | 1000 to 10000 | < 500 |  |  | Cc1ccc(-n2nc(NC[C@@H]3CCC[C@@H](N)C3)cc2-c2ccc(C#N)c(F)c2)cc1 [Example 12RR, 4-(3-((((1R,3R)-3-aminocyclohexyl)methyl)amino)-1-(p-tolyl)-1H-pyrazol-5-yl)-2-fluorobenzonitrile] |  | 
2 | < 500 | 500 to 1000 |  |  |  | COc1ccc(-n2nc(NC[C@H]3CCC[C@@H](N)C3)cc2-c2ccc(C#N)c(F)c2)cc1 (single isomer, unassigned) [Example 5a] |  | 
3 | < 500 | < 500 | < 500 |  |  | Cn1nc2ccc(-n3nc(NC[C@@H]4CCC[C@@H](N)C4)cc3-c3ccc(C#N)c(F)c3)cc2c1Cl [Example 14RR, 4-(3-((((1R,3R)-3-aminocyclohexyl)methyl)amino)-1-(3-chloro-2-methyl-2H-indazol-5-yl)-1H-pyrazol-5-yl)-2-fluorobenzonitrile] |  | 
4 | < 500 | 500 to 1000 |  |  |  | Cn1ncc2cc(-n3nc(NC[C@@H]4CCC[C@H](N)C4)cc3-c3ccc(C#N)c(F)c3)ccc21 (single isomer, unassigned) [Example 7b] |  | 
5 | < 500 | < 500 | < 500 |  |  | N#Cc1ccc(-c2cc(NC[C@H]3CCCNCC3)nn2-c2ccc(N3CCCC3)cc2)cc1F (single isomer, unassigned) [Example 24b] |  | 
6 | < 500 | < 500 |  |  |  | Cn1cc2cc(-n3nc(NC[C@H]4CCNC4)cc3-c3ccc(C#N)c(F)c3)ccc2n1 [Example 21S, (S)-2-fluoro-4-(1-(2-methyl-2H-indazol-5-yl)-3-((pyrrolidin-3-ylmethyl)amino)-1H-pyrazol-5-yl)benzonitrile] |  | 
7 | < 500 |  |  | 1000 to 10000 | < 500 | COc1ccc(-n2nc(NCC3CC3N)cc2-c2ccc(C#N)c(F)c2)cc1 (single isomer, unassigned) [Example 29b, 4-(3-(((2-aminocyclopropyl)methyl)amino)-1-(4-methoxyphenyl)-1H-pyrazol-5-yl)-2-fluorobenzonitrile] |  | 
8 | < 500 | < 500 |  |  |  | Cn1cc2cc(-n3nc(NC[C@H]4CCCNC4)cc3-c3ccc(C#N)c(F)c3)ccc2n1 (single isomer, unassigned) [Example 9b] |  | 
9 | < 500 |  | < 500 |  |  | Cn1cc2cc(-n3nc(NC[C@H]4CCC[C@H](N)C4)cc3-c3ccc(C#N)c(F)c3)ccc2n1 [Example 13SS, 4-(3-((((1S,3S)-3-aminocyclohexyl)methyl)amino)-1-(2-methyl-2H-indazol-5-yl)-1H-pyrazol-5-yl)-2-fluorobenzonitrile] |  | 
10 | 500 to 1000 | 1000 to 10000 | < 500 |  |  | COc1ccc(-n2nc(NCC3CC3N)cc2-c2ccc(C#N)c(F)c2)cc1 (single isomer, unassigned) [Example 29a, 4-(3-(((2-aminocyclopropyl)methyl)amino)-1-(4-methoxyphenyl)-1H-pyrazol-5-yl)-2-fluorobenzonitrile] |  | 

The remaining lines, values behind:

Row | Compound | IC50 (LSD1) [nM] | IC50 (MV4;11 cells; [1]) [nM] | IC50 (MV4;11 cells; [2]) [nM] | IC50 (MV4;11 cells; [3]) [nM] | IC50 (MV4;11 cells; Day 10, read-out: Cell Titer-Glo IC50 (10 d)) [nM] | IC50 (MV4;11 cells; Homo sapiens, 120 h, Day 5, read-out: Cell Titer-Glo IC50 (5 d)) [nM] | IC50 (MV4;11 cells; Homo sapiens, 240 h, Day 10, read-out: Cell Titer-Glo IC50 (10 d)) [nM]
11 | CC(C)n1cc2cc(-n3nc(NC[C@@H]4CCC[C@@H](N)C4)cc3-c3ccc(C#N)c(F)c3)ccc2n1 [Example 72, 4-(3-((((1R,3R)-3-aminocyclohexyl)methyl)amino)-1-(2-isopropyl-2H-indazol-5-yl)-1H-pyrazol-5-yl)-2-fluorobenzonitrile] | 1000 to 10000 | 500 to 1000 | < 500 |  |  |  | 
12 | (R)-4-(3-(3-aminopiperidin-1-yl)-1-(p-tolyl)-1H-pyrazol-5-yl)-2-fluorobenzonitrile/(R)-4-(5-(3-aminopiperidin-1-yl)-1-(p-tolyl)-1H-pyrazol-3-yl)-2-fluorobenzonitrile [Example 38] | < 500 |  |  | 1000 to 10000 |  |  | 
13 | Cn1ccc2cc(-n3nc(NCC4CCC[C@H](N)C4)cc3-c3ccc(C#N)c(F)c3)ccc21 (stereo partly drawn) [Example 66, 4-(3-((((1,3S)-3-aminocyclohexyl)methyl)amino)-1-(1-methyl-1H-indol-5-yl)-1H-pyrazol-5-yl)-2-fluorobenzonitrile] | < 500 | < 500 | < 500 |  |  |  | 
14 | COc1ccc(-n2nc(NC[C@H]3C[C@H](N)C3)cc2-c2ccc(C#N)c(F)c2)cc1 [Example 42, 4-(3-((((1r,3r)-3-aminocyclobutyl)methyl)amino)-1-(4-methoxyphenyl)-1H-pyrazol-5-yl)-2-fluorobenzonitrile] | 1000 to 10000 | 1000 to 10000 | < 500 |  |  |  | 
15 | N#Cc1ccc(-c2cc(NCC3CCCNCC3)nn2-c2ccc(N3CCN(CCO)CC3)cc2)cc1F (stereo not shown) [Example 27, 4-(3-((azepan-4-ylmethyl)amino)-1-(4-(4-(2-hydroxyethyl)piperazin-1-yl)phenyl)-1H-pyrazol-5-yl)-2-fluorobenzonitrile] | < 500 | < 500 | < 500 |  |  |  | 
16 | COc1ccc(-n2nc(NC[C@H]3CCC[C@@H](CN)C3)cc2-c2ccc(C#N)c(F)c2)cc1 [Example 77, 4-(3-((((1S,3R)-3-(aminomethyl)cyclohexyl)methyl)amino)-1-(4-methoxyphenyl)-1H-pyrazol-5-yl)-2-fluorobenzonitrile] | 1000 to 10000 | 1000 to 10000 | 1000 to 10000 |  |  |  | 
17 | Cn1cc(-c2ccc(-n3nc(NC[C@H]4CCC[C@H](N)C4)cc3-c3ccc(C#N)c(F)c3)cc2)cn1 [Example 54, 4-(3-((((1S,3S)-3-aminocyclohexyl)methyl)amino)-1-(4-(1-methyl-1H-pyrazol-4-yl)phenyl)-1H-pyrazol-5-yl)-2-fluorobenzonitrile] | < 500 | < 500 | < 500 |  |  |  | 
18 | N#Cc1ccc(-c2cc(NC[C@H]3CCC[C@H](N)C3)nn2-c2ccc(N3CCS(=O)(=O)CC3)cc2)cc1F [Example 50, 4-(3-((((1S,3S)-3-aminocyclohexyl)methyl)amino)-1-(4-(1,1-dioxidothiomorpholino)phenyl)-1H-pyrazol-5-yl)-2-fluorobenzonitrile] | < 500 | < 500 | < 500 |  |  |  | 
19 | Cn1nnc2cc(-n3nc(NC[C@H]4CCC[C@H](N)C4)cc3-c3ccc(C#N)c(F)c3)ccc21 [Example 68, 4-(3-((((1S,3S)-3-aminocyclohexyl)methyl)amino)-1-(1-methyl-1H-benzo[d][1,2,3]triazol-5-yl)-1H-pyrazol-5-yl)-2-fluorobenzonitrile] | < 500 | < 500 | < 500 |  |  |  | 
20 | N#Cc1ccc(-c2cc(NC[C@H]3CCC[C@H](N)C3)nn2-c2ccc(-c3cnn(CCCO)c3)cc2)cc1F [Example 58, 4-(3-((((1S,3S)-3-aminocyclohexyl)methyl)amino)-1-(4-(1-(3-hydroxypropyl)-1H-pyrazol-4-yl)phenyl)-1H-pyrazol-5-yl)-2-fluorobenzonitrile] | < 500 | < 500 | < 500 |  |  |  | 
21 | COc1ccc(-n2nc(NCC3CCNCC3)cc2-c2ccc(C#N)c(F)c2)cc1 [Example 2, 2-Fluoro-4-(1-(4-methoxyphenyl)-3-((piperidin-4-ylmethyl)amino)-1H-pyrazol-5-yl)benzonitrile] | < 500 | < 500 |  |  |  |  | 
22 | COc1ccc(-n2nc(NCC3CCNC3)cc2-c2ccc(C#N)c(F)c2)cc1 (stereo not shown) [Example 8, 2-fluoro-4-(1-(4-methoxyphenyl)-3-((pyrrolidin-3-ylmethyl)amino)-1H-pyrazol-5-yl)benzonitrile] | < 500 | < 500 |  |  |  |  | 
23 | COc1ccc(-n2nc(N)cc2-c2ccc(C#N)c(F)c2)cc1 [Example 1, 4-(3-Amino-1-(4-methoxyphenyl)-1H-pyrazol-5-yl)-2-fluorobenzonitrile] | > 10000 | > 10000 |  |  |  |  | 
24 | Cn1ncc2cc(-n3nc(NC[C@@H]4CN5CCC4CC5)cc3-c3ccc(C#N)c(F)c3)ccc21 (single isomer, unassigned) [Example 31a] | < 500 |  |  |  |  | 1000 to 10000 | < 500
25 | Cn1cc2cc(-n3nc(NCC4CCNCC4)cc3-c3ccc(C#N)c(F)c3)ccc2n1 [Example 10, 2-Fluoro-4-(1-(2-methyl-2H-indazol-5-yl)-3-((piperidin-4-ylmethyl)amino)-1H-pyrazol-5-yl)benzonitrile] | < 500 | < 500 |  |  |  |  | 
26 | COC1CCN(c2ccc(-n3nc(NC[C@H]4CCC[C@H](N)C4)cc3-c3ccc(C#N)c(F)c3)cc2)CC1 [Example 43, 4-(3-((((1S,3S)-3-aminocyclohexyl)methyl)amino)-1-(4-(4-methoxypiperidin-1-yl)phenyl)-1H-pyrazol-5-yl)-2-fluorobenzonitrile] | < 500 |  | < 500 |  |  |  | 
27 | CN1CCN(c2cccc(-n3nc(NC[C@H]4CCC[C@H](N)C4)cc3-c3ccc(C#N)c(F)c3)c2)CC1 [Example 45, 4-(3-((((1S,3S)-3-aminocyclohexyl)methyl)amino)-1-(3-(4-methylpiperazin-1-yl)phenyl)-1H-pyrazol-5-yl)-2-fluorobenzonitrile] | 1000 to 10000 | 500 to 1000 | < 500 |  |  |  | 
28 | COc1ccc(-n2nc(NC[C@H]3CCC[C@H](N)C3)cc2-c2ccc(C(F)(F)F)c(F)c2)cc1 [Example 18, N-(((1S,3S)-3-aminocyclohexyl)methyl)-5-(3-fluoro-4-(trifluoromethyl)phenyl)-1-(4-methoxyphenyl)-1H-pyrazol-3-amine] | 1000 to 10000 | 500 to 1000 | 500 to 1000 |  |  |  | 
29 | N#Cc1ccc(-c2cc(NCC3CCCNCC3)nn2-c2ccc(N3CCS(=O)(=O)CC3)cc2)cc1F (stereo not shown) [Example 26, 4-(3-((azepan-4-ylmethyl)amino)-1-(4-(1,1-dioxidothiomorpholino)-phenyl)-1H-pyrazol-5-yl)-2-fluorobenzonitrile] | < 500 | < 500 | < 500 |  |  |  | 
